The values that follow come from PMC11637875, “Discovery of novel PARP1/NRP1 dual-targeting inhibitors with strong antitumor potency” (Frontiers in Pharmacology, 2024).

Where two headings read alike, the source gives them in different places.

The subject of data set [1] is MDA-MB-231 xenograft tumor. Kind of data set: In vivo antitumor assay. Set-up: species or system BALB/c nude mice. The settings on record: 5 mg/kg intraperitoneally every 3 days, n = 6. On the procedure:
Twenty-four female BALB/c nude mice (body weight 16–20 g) at 4–6 weeks old were purchased from Changzhou Cavens Experimental Animal Limited Company (Changzhou, China). Mice were adaptively housed for 1 week in a specific pathogen-free (SPF) environment with a temperature of 25°C ± 2°C, a 12-hour light/dark cycle, and free access to food and water. MDA-MB-231 breast cancer cells (200 μL, 1×10^7 cells) were suspended in PBS to formulate cell suspension, and 0.1 mL of cells were injected into the axilla of the left forelimb of mice by subcutaneous injection. […] Equal concentrations of drug-free PBS buffer were used for the vehicle group. Each group was administered every 3 days and the body weight and tumor size of the mice were recorded. Mice were executed when the tumor volume approached 2000 mm^3. Tumor volumes of all mice were measured using vernier calipers. The mice were placed belly up and the longest diameter of the tumor was measured with the inner bayonet of a vernier caliper, and the shortest transverse diameter perpendicular to the diameter was measured with the inner bayonet of a vernier caliper and recorded. Tumor volume was estimated according to the following formula: (c × c × d)/2 (c, the smallest diameter; d, the largest diameter). All animal experiments were performed and approved by the Ethics Committee of China Pharmaceutical University.

For a further data set, the system named is MDA-MB-231 cells. Kind of data set: In vitro antiproliferation assay (MTT). The format is cell-based. The settings on record: Homo sapiens. The procedure: Cell viability was measured by MTT assays. […] Afterward, the medium was removed. MTT (5 mg/mL) was dissolved in phosphate-buffered saline (PBS) and filter-sterilized, and then, 20 μL of the prepared MTT solution was added to each well, and the cells were incubated for another 4 h until a purple precipitate was visible. The supernatant was removed by centrifugation, and DMSO (150 μL/well) was added to dissolve the insoluble crystals. The absorbance was determined using an enzyme-linked immunosorbent assay reader at a test wavelength of 570 nm. The assays were performed three times in a parallel manner. The non-linear regression was used to plot a Dose-Response-Inhibition to determine the value of the IC50. […] The data were analyzed using GraphPad Prism 9 software.

The target of data set [2] is T1, NRP1 (Homo sapiens, UniProt O14786).
T1 construct: purchased Abcam
T1 sequence (O14786 22-644 isoform O14786-2 limits assumed): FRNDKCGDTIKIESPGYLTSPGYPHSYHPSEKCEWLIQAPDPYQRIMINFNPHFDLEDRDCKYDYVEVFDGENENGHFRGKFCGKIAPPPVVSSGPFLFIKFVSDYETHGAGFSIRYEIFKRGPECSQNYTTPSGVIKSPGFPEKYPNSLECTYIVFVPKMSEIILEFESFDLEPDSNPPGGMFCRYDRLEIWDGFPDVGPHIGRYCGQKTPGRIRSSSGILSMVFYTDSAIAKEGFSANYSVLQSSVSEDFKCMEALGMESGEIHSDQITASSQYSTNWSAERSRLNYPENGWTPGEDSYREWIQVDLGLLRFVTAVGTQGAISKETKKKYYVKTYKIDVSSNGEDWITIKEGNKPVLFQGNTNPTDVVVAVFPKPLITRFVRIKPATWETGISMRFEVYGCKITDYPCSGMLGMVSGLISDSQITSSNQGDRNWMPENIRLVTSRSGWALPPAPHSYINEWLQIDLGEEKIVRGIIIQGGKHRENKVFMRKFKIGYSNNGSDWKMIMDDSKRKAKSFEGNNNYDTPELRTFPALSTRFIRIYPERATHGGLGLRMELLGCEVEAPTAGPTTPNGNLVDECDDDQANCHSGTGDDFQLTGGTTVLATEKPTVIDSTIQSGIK
Kind of data set: Microscale thermophoresis (MST) assay. The settings on record: labeled protein 50 nM; for Kd: read-out: NRP1 (K d). It is filed as binding. The procedure: (§1) All samples were diluted in 1 × PBST. […] Affinity Analysis software.
(In MST a laser heats a spot of the sample, and binding alters the fluorescence response.)

Data set [3] concerns the target T2, PARP1 (Homo sapiens, UniProt P09874).
T2 construct: purchased Abcam
Kind of data set: Microscale thermophoresis (MST) assay. The format is binding. The settings on record: labeled protein 50 nM; for Kd: read-out: PARP1 (K d). The procedure:
as §1

Data set [4] deals with T2, PARP1. Kind of data set: In vitro PARP1 inhibition assay (chemiluminescence). It is filed as biochemical. The note with it: PARP1 enzyme 0.6 units/well. On the procedure:
In each well, 50 μL of 1 × PARP1 buffer was added and incubated for 30 min at room temperature. The 1 × PARP1 buffer was removed from the wells, and then 25 μL of 1 × PARP1 cocktail was added to each well along with varying doses of compounds and PARP1 enzyme (0.6 units/well). Incubated and washed twice with PBS and 0.1% Triton X-100. Then added 50 μL Strep-HRP and washed twice. Equal volumes (100 μL) of PeroxyGlow A and B were added to each well and immediately take chemiluminescent readings. Data were analyzed by GraphPad Prism 9 software based on chemiluminescence readings of chemiluminescent substrates of Strep-HRP in each well. The IC50 value was were calculated by nonlinear curve fitting in GraphPad Prism 9.

In data set [5] the target is T3, NRP1 (Homo sapiens, UniProt O14786).
T3 construct: expressed in transfected cells; host or cells: HUVEC, adenovirus NRP1
The experiment in a line: In vitro NRP1 inhibition assay (125I-VEGF-A binding displacement, NRP1-transfected HUVEC cells). The settings on record: 125I-VEGF-A165 binding competition, 2 h, 4°C. The procedure: The method was performed as described previously ([Jarvis et al., 2010]). Radiolabeled binding displacement experiments were performed as described previously ([Jia et al., 2006]). Confluent adenovirus NRP1-transfected HUVEC cells in 96-well plates were washed twice with PBS. At 4°C various concentrations of compounds diluted in binding medium (Dulbecco’s modified Eagle’s medium, 25 mM HEPES, pH 7.3, containing 0.1% BSA) were added, followed by addition of the indicated concentration of ^125I-VEGF-A (1,200–1800 Ci/mmol, GE Healthcare, United Kingdom). After 2 h of incubation at 4°C, the medium was aspirated, and washed four times with cold phosphate-buffered saline. The cells were lysed with 0.25 M NaOH, 0.5% SDS solution, and the bound radioactivity of the lysates was measured. IC50 values were calculated from the competition curves of the compounds in the ^125I-VEGF-A165 binding assay using GraphPad Prism 9 software. Using log(inhibitors) vs response-Variable slope equation in the GraphPad Prism 9 to fit the curves. The equation was as follows: (Top and Bottom are the responses, respectively, at the top and bottom of the curve, Y is the inhibitory response at a given compound concentration X, and the Hillslope describes the steepness of the curve.) Y=Bottom+Top−Bottom/1+10^logIC50−xHillslope
T3 sequence (O14786 22-923): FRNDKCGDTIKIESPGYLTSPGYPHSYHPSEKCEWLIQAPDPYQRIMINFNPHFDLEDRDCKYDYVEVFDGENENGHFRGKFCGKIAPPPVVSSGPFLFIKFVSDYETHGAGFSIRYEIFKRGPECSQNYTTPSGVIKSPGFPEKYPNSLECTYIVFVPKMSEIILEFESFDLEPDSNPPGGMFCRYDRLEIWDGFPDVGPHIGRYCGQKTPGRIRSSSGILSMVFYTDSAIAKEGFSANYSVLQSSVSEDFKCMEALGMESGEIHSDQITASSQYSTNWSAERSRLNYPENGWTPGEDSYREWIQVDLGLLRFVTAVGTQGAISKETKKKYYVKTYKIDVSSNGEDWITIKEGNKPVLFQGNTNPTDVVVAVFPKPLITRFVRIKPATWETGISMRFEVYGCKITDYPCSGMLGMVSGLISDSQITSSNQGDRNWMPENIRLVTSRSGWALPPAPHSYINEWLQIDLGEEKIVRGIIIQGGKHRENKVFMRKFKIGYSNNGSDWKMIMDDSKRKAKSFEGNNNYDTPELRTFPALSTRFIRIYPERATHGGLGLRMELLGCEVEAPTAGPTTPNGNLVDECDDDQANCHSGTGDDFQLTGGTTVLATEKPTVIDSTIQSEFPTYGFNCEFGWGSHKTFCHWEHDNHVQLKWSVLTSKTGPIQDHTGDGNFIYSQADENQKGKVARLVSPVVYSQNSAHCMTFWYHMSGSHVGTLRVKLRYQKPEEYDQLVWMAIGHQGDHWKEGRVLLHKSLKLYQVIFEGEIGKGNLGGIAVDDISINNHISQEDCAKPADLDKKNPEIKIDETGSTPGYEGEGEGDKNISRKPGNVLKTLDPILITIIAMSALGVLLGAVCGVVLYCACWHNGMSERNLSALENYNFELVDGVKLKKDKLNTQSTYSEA

[6] abbreviates: 168 h, MDA-MB-231, concentration needed to reduce cell growth by 50% following 7 days cell treatment, read-out: IC50.

T2 sequence (P09874 whole entry): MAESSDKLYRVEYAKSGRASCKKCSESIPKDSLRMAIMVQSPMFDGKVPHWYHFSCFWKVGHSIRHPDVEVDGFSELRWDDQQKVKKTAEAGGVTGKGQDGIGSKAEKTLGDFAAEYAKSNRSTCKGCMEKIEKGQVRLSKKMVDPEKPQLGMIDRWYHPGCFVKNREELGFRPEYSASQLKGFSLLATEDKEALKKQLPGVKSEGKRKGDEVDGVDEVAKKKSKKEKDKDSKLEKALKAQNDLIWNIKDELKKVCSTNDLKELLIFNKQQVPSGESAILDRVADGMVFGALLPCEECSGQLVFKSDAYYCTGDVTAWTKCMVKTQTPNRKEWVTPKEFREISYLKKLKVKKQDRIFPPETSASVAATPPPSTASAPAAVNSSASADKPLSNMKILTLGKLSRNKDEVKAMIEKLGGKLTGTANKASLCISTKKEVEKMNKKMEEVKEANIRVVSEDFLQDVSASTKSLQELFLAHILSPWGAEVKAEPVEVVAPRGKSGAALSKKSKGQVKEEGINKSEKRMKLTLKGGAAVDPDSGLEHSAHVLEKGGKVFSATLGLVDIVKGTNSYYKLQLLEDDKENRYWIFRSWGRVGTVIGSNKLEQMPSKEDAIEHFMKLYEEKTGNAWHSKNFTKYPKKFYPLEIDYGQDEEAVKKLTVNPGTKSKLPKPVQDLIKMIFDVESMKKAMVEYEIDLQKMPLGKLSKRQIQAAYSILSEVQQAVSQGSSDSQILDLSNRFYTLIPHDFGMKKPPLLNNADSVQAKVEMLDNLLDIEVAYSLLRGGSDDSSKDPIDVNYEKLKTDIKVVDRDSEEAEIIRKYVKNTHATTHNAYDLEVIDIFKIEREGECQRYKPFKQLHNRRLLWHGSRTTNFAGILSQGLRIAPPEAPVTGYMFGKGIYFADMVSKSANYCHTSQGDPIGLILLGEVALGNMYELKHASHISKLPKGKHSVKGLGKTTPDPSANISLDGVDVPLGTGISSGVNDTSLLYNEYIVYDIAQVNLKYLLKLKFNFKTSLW

A word on the IC50: it is the concentration at which inhibition is half-maximal. With `NC(N)=NCCC[C@H](NC(=O)c1sccc1NS(=O)(=O)c1cccc2nsnc12)C(=O)O` [EG00229], the “body weight (g) in mice, mean” value in data set [1] (day 0) is on record as 18.38 g; in data set [1] (day 3) it was 18.51 g; in data set [1] (day 6), 18.84 g; in data set [1] (day 9), 19.19 g; in data set [1] (day 12) it was 19.52 g. Besides, the “tumor volume (mm^3), mean” value in data set [1] (day 0) is on record as 101 mm^3; in data set [1] (day 3), 275 mm^3; in data set [1] (day 6) it was 502 mm^3; in data set [1] (day 9), 976 mm^3; in data set [1] (day 12) it was 1352 mm^3. For the same compound, the IC50 with MDA-MB-231 cells (setting [6]) worked out at 62400 nM; at NRP1 [5] it was 640 ± 34.7 nM. Further, the Kd on NRP1 [2] turned out to be 519 nM. Moreover, the “PARP1 (K d, nM)” value at PARP1 [3] is “no binding”. Besides, on PARP1 [4], the “PARP1 (IC50, nM)” value is recorded as “No inhibition”.

In the case of `O=C(c1cc(Cc2n[nH]c(=O)c3ccccc23)ccc1F)N1CCN(C(=O)C2CC2)CC1` [Olaparib, olaparib], the “body weight (g) in mice, mean” value in data set [1] (day 0) is given as 18.29 g; in data set [1] (day 3), 18.55 g; in data set [1] (day 6), 19.12 g; in data set [1] (day 9) it was 19.37 g; in data set [1] (day 12), 19.59 g. Moreover, the “tumor volume (mm^3), mean” value is 103 mm^3 in data set [1] (day 0); 245 mm^3 in data set [1] (day 3); 329 mm^3 in data set [1] (day 6); 513 mm^3 in data set [1] (day 9); 733 mm^3 in data set [1] (day 12). In addition, the IC50 in the data set on MDA-MB-231 cells (MDA-MB-231, 168 h) is 960 nM. The “NRP1 (K d, nM)” value on NRP1 [2] is listed as “no binding”. In addition, at NRP1 [5], the “NRP1 (IC50, nM)” value is “No inhibition”.

As for `NC(N)=NCCC[C@H](NCNCCNC(=O)c1cc(Cc2n[nH]c(=O)c3ccccc23)ccc1F)C(=O)O` [PPNR-1], the IC50 in the data set on MDA-MB-231 cells (setting [6]) was determined as 890 nM; against PARP1 [4], 70.3 ± 3.13 nM; on NRP1 [5], 94.1 ± 4.24 nM. Also, the Kd on NRP1 [2] was found to be 91.5 nM; at PARP1 [3], 75.1 nM.

In the case of `NC(N)=NCCC[C@H](NCN1CCCN(C(=O)c2cc(Cc3n[nH]c(=O)c4ccccc34)ccc2F)C1)C(=O)O` [PPNR-2], the IC50 with MDA-MB-231 cells (setting [6]) is 560 nM; at PARP1 [4], 29.3 ± 2.57 nM; on NRP1 [5], 31.2 ± 3.95 nM. The Kd was found to be 31 nM at NRP1 [2] and 28.4 nM at PARP1 [3].

On to `NC(N)=NCCC[C@H](NC/C=C/CNC(=O)c1cc(Cc2n[nH]c(=O)c3ccccc23)ccc1F)C(=O)O` [PPNR-3], for which the IC50 came to 830 nM in the data set on MDA-MB-231 cells (setting [6]), 63.2 ± 4.02 nM at PARP1 [4] and 72.9 ± 3.41 nM on NRP1 [5]. Further, the Kd at NRP1 [2] came to 71.3 nM; at PARP1 [3], 61.1 nM.

As for `CN(CCNC(=O)c1cc(Cc2n[nH]c(=O)c3ccccc23)ccc1F)CN[C@@H](CCCN=C(N)N)C(=O)O` [PPNR-5], the IC50 was 720 nM in the data set on MDA-MB-231 cells (setting [6]), 41.4 ± 2.86 nM against PARP1 [4] and 57.1 ± 3.27 nM at NRP1 [5]. Also, the results for the Kd on NRP1 [2] and at PARP1 [3] were 55.3 nM and 40 nM, respectively.
